Results as given in ChEMBL document CHEMBL3507680, “University of Dundee, Gates Library screen for HepG2 cell viability”.

Test: Human HepG2 cell viability assay in 384 well format
Format: toxicity, cell-based
Design: dose 125 nL, time 70.5 hour; cytotoxicity at 70.5 h: concentration not given beside the values
Conditions: HepG2 cells, read-out: Inhibition

Row | SMILES | cytotoxicity at 70.5 h [%]
1 | O=C([C@@H]1Cc2[nH]cnc2CN1C(=O)NC1CCCCC1)N1CCCC1 | -7.01
2 | CC(=O)NC[C@@H]1C=C(C)[C@H](CC(=O)NCc2cccnc2)C[C@H]1C(C)C | 4.62
3 | Fc1ccc(-c2c[nH]c([C@@H]3COCCN3)n2)cc1 | -9.31
4 | CN1CCOC[C@H]1c1nc(-c2ccncc2)c[nH]1 | 1.37
5 | O=C(NC[C@H]1OC[C@@H](NCc2ccccc2)[C@@H]1O)Nc1ccccc1 | -3.94
6 | CC(=O)N1CC[C@H]2NC(=O)N(Cc3ccccc3)C(=O)[C@H]21 | -1.45
7 | Nc1ncncc1-c1noc([C@@H]2CCCN2CCCc2ccccc2)n1 | -6.26
8 | CC(=O)N[C@H]1CCN2C(=O)[C@@H](Cc3c[nH]c4ccccc34)NC(=O)[C@H]12 | -13.3
9 | Cc1cccc(-c2noc([C@@H]3C[C@@H](O)CN3Cc3ccc(CO)o3)n2)c1 | 0.167
10 | COCc1cc(C[C@@H]2CC[C@H](O)[C@@H](CN(C)C)O2)no1 | -0.737
11 | Cc1ccc(CN2C[C@H]3CN(Cc4ccccc4Cl)CCN3C2=O)cc1 | -9.42
12 | CC(C)(C)CN1CCN2C(=O)N(C3CCCCC3)C[C@H]2C1 | -11.1
13 | CC(C)(C)CN[C@@H]1CO[C@H](CNC(=O)C2CCCC2)[C@H]1O | -14
14 | Cc1ccc(CNC2(Cc3cc(CO)on3)COC2)o1 | -1.63
15 | CC(C)(C)CNC[C@H]1Cn2ccnc2CO1 | -4.98
16 | O=C(CN1C(=O)CCC1=O)NCc1cc(C2CC2)n(C2CCCC2)n1 | -2.61
17 | Cn1cnnc1S(=O)(=O)C1CCN(S(=O)(=O)c2ccc(Cl)s2)CC1 | 11.9
18 | Cc1c(Cl)cccc1S(=O)(=O)N1CCC(S(=O)(=O)c2nncn2C)CC1 | 1.44
19 | CNC(=O)CS(=O)(=O)C1CCN(S(=O)(=O)c2ccccc2Cl)CC1 | 23.7
20 | CNC(=O)CS(=O)(=O)C1CCN(S(=O)(=O)c2cccc(C(C)=O)c2)CC1 | -6.78
21 | Cc1csc(C(=O)N2CC(S(=O)(=O)C3CCCCC3)C2)c1 | -6.45
22 | O=C(c1cnccn1)N1CC(S(=O)(=O)c2ccc(Cl)cc2)C1 | -4.33
23 | Cc1cc(S(=O)(=O)N2CCC(N3CCC(O)C3)CC2)c(Cl)cc1Cl (stereo not given) | -4.51
24 | O=C(Cc1cccs1)Nc1cnn(C2CCOC2)c1 (stereo not given) | 40.6
25 | N#Cc1ccc(S(=O)(=O)Nc2cnn(C3CCOCC3)c2)cc1 | -1.54
26 | O=C(O)c1cc(S(=O)(=O)Nc2cnn(C3CCOCC3)c2)ccc1F | -6.44
27 | COC(CNC(=O)C1CC1)c1ccc(C)s1 (stereo not given) | 19.1

Row | SMILES | cytotoxicity at 70.5 h [%]
28 | COC(CNC(=O)C1CCN(S(C)(=O)=O)CC1)c1ccc(C)s1 (stereo not given) | -12
29 | COC(C)(CNS(=O)(=O)c1cccnc1)c1ccccc1F (stereo not given) | -18.1
30 | COC(C)(CNS(=O)(=O)c1cnn(C)c1)c1ccccc1F (stereo not given) | -0.155
31 | CCC(CNC(=O)C1CC1)(OC)c1ccccc1 (stereo not given) | 8.11
32 | CCOCC(=O)NCC(CC)(OC)c1ccccc1 (stereo not given) | -12.4
33 | O=C(NCc1cccs1)C1CCCN(c2cc(-n3cncn3)ncn2)C1 (stereo not given) | -3.14
34 | O=C(C1CC1)N1CCN(c2ccc(-n3cncn3)nn2)CC1 | -3.85
35 | Cc1ccccc1C(=O)N1CCN(c2ccc(-n3cncn3)nn2)CC1 | -4.18
36 | Nc1cccnc1N1CCC(C(F)(F)F)CC1 | 14.9
37 | Cc1cncc(Oc2ccc(CN)cc2)n1 | -10.6
38 | Cc1cncc(Oc2ccc(CO)cc2)n1 | -5.95
39 | O=C(CC1CC1)N1CCC2(CC1)C(=O)NCCN2Cc1ccccc1 | 10.6
40 | CCN1C(=O)C[C@@H]2[C@@H]1CCN2S(=O)(=O)c1ccc(OC)cc1 | 9.29
41 | Cc1ccccc1CNC(=O)N1CC[C@@H]2CN(C)S(=O)(=O)[C@@H]2CC1 | 17.8
42 | Cc1cc(C(=O)N[C@H]2CC[C@@]3(CCC(=O)N3CC3CC3)CC2)no1 | -15.5
43 | O=C1CCC2(CCN(S(=O)(=O)c3ccccc3)CC2)N1CC1CC1 | -12.5
44 | CCN1C(=O)CCC12CCCN(S(=O)(=O)c1cccc(C)c1)CC2 (stereo not given) | -2.78
45 | CCCS(=O)(=O)N1CCC2(CCCC(=O)N2C)CC1 | -9.65
46 | O=C(C1CCOCC1)N1CCC2(CCC(C(=O)N3CCCC3)O2)CC1 (stereo not given) | -6.14
47 | CCS(=O)(=O)N1CCCC2(CCCC(=O)N2C)C1 (stereo not given) | -9.96
48 | CC(=O)N1CC2(CCN(C(=O)c3ccc4c(c3)OCCO4)CC2)C1 | 20.2
49 | O=C(CC(F)(F)F)N1C[C@H]2CN(CC3CC3)C(=O)[C@H]2C1 | -5.1
50 | CC(=O)N1CCOCC2(CCCNC2)C1 (stereo not given) | -9.88
51 | O=C(C[C@@H]1COC[C@H]2CN(Cc3ccsc3)C[C@@H]12)N1CCCC1 | -3.89
52 | CC(=O)N1CCC2(CC1)CN(C(=O)C1CC1)c1ccc(F)cc12 | -0.352
53 | CN(C)C(=O)NC1COC2(CCN(C(=O)c3ccc(Cl)cc3)CC2)C1 (stereo not given) | -8.31
54 | CC(=O)N1C[C@H]2CN(CC3CC3)C(=O)[C@H]2C1 | -0.948

Row | SMILES | cytotoxicity at 70.5 h [%]
55 | COCCN1C[C@@H]2CN(C(=O)CC3CC3)C[C@@H]2C1=O | -6.26
56 | COCCn1c2c(ccc1=O)CC(N)CC2 (stereo not given) | -0.36
57 | CC(C)Cn1c2c(ccc1=O)CC(N)CC2 (stereo not given) | -3.16
58 | O=C([C@H]1CCCO1)N1Cc2nccn2CC(COc2cccnc2)C1 (stereo not given in full) | -4.93
59 | Cn1cc(C2CC(=O)NC23CCN(C(=O)C2CC=CC2)CC3)cn1 (stereo not given) | 18.7
60 | C1CC(CN2C[C@@H]3C[C@@H](c4nnc(C5CC5)o4)O[C@@H]3C2)C1 | 27.7
61 | CCC(=O)N1CCC2(CC1)CC(NC(=O)N(C)C)c1cc(C)ccc12 (stereo not given) | -5.76
62 | O=C(c1cccc(F)c1)N1CCc2ncc(Cn3cccn3)n2CC1 | -11
63 | O=C(NCCN1CCCC1)c1cc2c(s1)CCN2C(=O)c1ccccc1 | -8.31
64 | O=C(NCC1CC1)c1cc2c(s1)CCN2C(=O)c1ccc(F)cc1 | -9.03
65 | CCO[C@@H]1CC[C@H]2[C@H]1OCCN2S(=O)(=O)C1CC1 | -11.4
66 | CN1CCN(C(=O)c2cccn2C)Cc2cccnc21 | -4.65
67 | O=C(NCC1CC1)[C@@H]1C[C@@H]2CCN(Cc3ccccc3)C[C@H]2O1 | -6.35
68 | COCCN1Cc2ccccc2C2(CCN(C(=O)c3ccno3)CC2)C1 | 2.49
69 | O=C(N1CCOCC1)N1CCC2(CCNC2)C1 (stereo not given) | -3.15
70 | CS(=O)(=O)NCc1cncc2c1CCN(C(=O)N1CCCC1)C2 | 11.1
71 | CN(C)C[C@@H]1CCC[C@@H]2CN(c3nccc(C(F)(F)F)n3)C[C@@H]21 | 23.3
72 | CCN1CCC2(CN(C(=O)N(C)C)CC23CCN(CC2CC2)CC3)C1=O (stereo not given) | 18.4
73 | CCN1CCC2(CN(C(C)=O)CC23CCN(CC2CC2)CC3)C1=O (stereo not given) | -5.77
74 | Cc1cnc(N2CCC3(CCCCN3C)C2)nc1 (stereo not given) | -7.87
75 | CN(C)C(=O)CN1CC[C@H]2CN(C3CCOCC3)C[C@@H]2C1=O | -4.31
76 | CC(=O)N1CCC2(CC1)CN(CC(C)C)CC21CCNC1=O (stereo not given) | 13.6
77 | Cc1ccc(CN2CCC[C@@H]3CN(C(=O)c4ccco4)C[C@@H]32)o1 | -9.58
78 | O=C1CC[C@]2(CC[C@@H](NC3CCOCC3)CC2)N1Cc1ccccc1 | -2.63
79 | COCCN1CCC2(CC1)CN(C(=O)C1CC1)c1ccc(F)cc12 | -3.73
80 | CN(C)C1COC2(CCN(C(=O)c3cccc(Cl)c3)CC2)C1 (stereo not given) | -9.63
81 | O=C(C[C@H]1[C@H]2CN(Cc3ccc(F)cc3)C[C@@H]12)N1CCCC1 | -3.22

Row | SMILES | cytotoxicity at 70.5 h [%]
82 | COc1ccc(CN2C[C@@H]3[C@H](CC(=O)N4CCCC4)[C@@H]3C2)cc1 | -9.32
83 | CNC(=O)CN1CC[C@H]2CN(C(=O)c3ccc(C)nc3)C[C@H]2C1 | -1.44
84 | CC(C)CCN1CCc2[nH]nc(C(=O)N3CCCC3C)c2C1 (stereo not given) | -6.21
85 | O=C(NC1CC1)N1CCCC2(CCCCN2)C1 (stereo not given) | -5.05
86 | O=C(c1ccco1)N1C[C@@H]2OCCN(c3ncccn3)[C@@H]2C1 | -13.6
87 | O=C(c1ccc(O)cc1)N1C[C@@H]2OCCN(c3ncccn3)[C@@H]2C1 | -10.7
88 | CN(C)C(=O)N1CCC[C@]2(C(=O)N(C)C)CN(c3ccccn3)C[C@@H]2C1 | -10.5
89 | Cn1cc(N2C(=O)CC[C@@H]3[C@H]2CCN3Cc2nccs2)cn1 | -11.9
90 | CN1CC(=O)N(c2ccccc2)CC12CCN(C(=O)c1ccnnc1)C2 (stereo not given) | 24.2
91 | Cc1ccc2c(c1)C(NC(=O)N(C)C)CC21CCN(C)CC1 (stereo not given) | -3.53
92 | Cc1ccc2c(c1)C(NC(=O)N(C)C)CC21CCN(CC2CC2)CC1 (stereo not given) | -9.46
93 | O=C(NCC1CCOCC1)[C@H]1C[C@@H]2CCN(Cc3ccccc3)C[C@H]2O1 | -7.17
94 | Cn1cc(C2CC(=O)NC23CCN(Cc2cccc(F)c2)CC3)cn1 (stereo not given) | -0.799
95 | O=C(c1ccccn1)N1CCc2ncc(Cn3cccn3)n2CC1 | -7.08
96 | CC(=O)N1CCO[C@H]2[C@H](OCCCn3cccn3)CC[C@@H]21 | -3.12
97 | c1cc(CN2CCC3(CC2)CC(N2CCCC2)CO3)co1 (stereo not given) | -5.63
98 | CN(C)C(=O)[C@]12CCCN(CC3CC3)C[C@H]1CN(c1ccccn1)C2 | -8.29
99 | COCC1c2c(cnn2CC2CC2)CCN1Cc1cc(C)on1 (stereo not given) | -12.7
100 | c1cc(CN2CCO[C@H]3[C@H](OCCN4CCCC4)CC[C@@H]32)co1 | -14.8
101 | CC(C)N1CC[C@@H]2OC[C@H](C(=O)Nc3cccnc3)C[C@@H]2C1 | 25.1
102 | Cn1cccc1C(=O)N1CCN(Cc2cccnc2)c2ncccc2C1 | -8.24
103 | c1cnn(CCCO[C@@H]2CC[C@H]3[C@H]2OCCN3CC2CCOCC2)c1 | -5.34
104 | CN(Cc1ccncc1)C1COC2(CCN(Cc3cccs3)CC2)C1 (stereo not given) | -12.7
105 | Cc1nc(CN2CCC3(CCCN(Cc4cccnc4)C3)C2=O)cs1 (stereo not given) | 26.7
